# Assay results as given in patent US12240840B2, “Amide-substituted heterocyclic compounds for the treatment of conditions related to the modulation of IL-12, IL-23 and/or IFN-alpha” (BRISTOL-MYERS SQUIBB COMPANY, priority 2018, dated 2025).
# Test system: IFNα-induced pSTAT5 (pY694) in CD3 positive cells of human whole blood
# Test: IFNα-Induced STAT Phosphorylation in Human Whole Blood
# Format: cell-based
# Settings: Homo sapiens, 1 h compound incubation, 1000 U/mL recombinant human IFNα A/D for 15 min, pSTAT5 in CD3 positive population, read-out: Human WB IFNα-Induced Stat Phosph. (IC50)
# Protocol: IFNα-Induced STAT Phosphorylation in Human Whole Blood
# After an hour long incubation with compound, human whole blood (drawn with either EDTA or ACD-A as anti-coagulant) was stimulated with 1000 U/mL recombinant human IFNα A/D (R&D Systems 11200-2) for 15 min. The stimulation was stopped by adding Fix/Lyse buffer (BD 558049). Cells were stained with a CD3 FITC antibody (BD 555916), washed, and permeabilized on ice using Perm III buffer (BD 558050). Cells were then stained with an Alexa-Fluor 647 pSTAT5 (pY694) antibody (BD 612599) for 30 min prior to analysis on the FACS Canto II. The amount of pSTAT5 expression was quantitated by median fluorescence intensity after gating on the CD3 positive population.
# IFNα-Induced STAT Phosphorylation in Human Whole Blood Inhibition Data ND—no data available
row,IC50,Structure (SMILES)
1,22 nM,[2H]C([2H])([2H])NC(=O)c1nnc(NC(=O)C2CC2)cc1Nc1cccc(-c2ncc(C(=O)N3CCC(N(CC)CC)CC3)s2)c1OC [Example 343]
2,410 nM,[2H]C([2H])([2H])NC(=O)c1nnc(NC(=O)C2CC2)cc1Nc1cccc(-c2nc([C@@H](C)N)no2)c1OC [Example 191]
3,130 nM,[2H]C([2H])([2H])NC(=O)c1nnc(NC(=O)C2CC2)cc1Nc1cccc(-c2ncc(C(C)O)s2)c1OC (stereo not drawn) [Example 258]
4,> 10000 nM,[2H]C([2H])([2H])NC(=O)c1nnc(NC(=O)C2CC2)cc1Nc1cccc(-c2ncc(NC(=O)OC(C)(C)C)s2)c1OC [Example 281]
5,60 nM,[2H]C([2H])([2H])NC(=O)c1nnc(NC(=O)C2CC2)cc1Nc1cccc(-c2noc(C(CC)C(=O)NCCOC)n2)c1OC (stereo not drawn) [Example 41]
6,130 nM,[2H]C([2H])([2H])NC(=O)c1nnc(NC(=O)C2CC2)cc1Nc1cc(F)cc(-c2cc(C(=O)N3CCOCC3)n(C)n2)c1OC [Example 485]
7,110 nM,[2H]C([2H])([2H])NC(=O)c1nnc(NC(=O)C2CC2)cc1Nc1cccc(-c2ncc(C(=O)NCCCN3CCN(C(C)C)CC3)s2)c1OC [Example 341]
8,> 10000 nM,[2H]C([2H])([2H])NC(=O)c1nnc(NC(=O)C2CC2)cc1Nc1cccc(-c2nc([C@H](NC(=O)OC(C)(C)C)[C@H](C)OC(C)(C)C)no2)c1OC [Example 206]
9,210 nM,[2H]C([2H])([2H])NC(=O)c1nnc(NC(=O)C2CC2)cc1Nc1cccc(-c2noc(C3(C(=O)N4CCOCC4)CC3)n2)c1OC [Example 28]
10,13 nM,CCN(Cc1nc(-c2cccc(Nc3cc(NC(=O)C4CC4)nnc3C(N)=O)c2OC)no1)S(C)(=O)=O [Example 59]
11,390 nM,[2H]C([2H])([2H])NC(=O)c1cnc(NC(=O)C2CC2)cc1Nc1cccc(-c2nc(C(C)(C)O)no2)c1OC [Example 218]
12,190 nM,COc1c(Nc2cc(NC(=O)C3CC3)nnc2C(N)=O)cccc1-c1ncc(C(=O)N2CCCCC2)s1 [Example 403]
13,280 nM,[2H]C([2H])([2H])NC(=O)c1nnc(NC(=O)C2CC2)cc1Nc1cccc(-c2noc(C(C)(C)O)n2)c1OC [Example 73]
14,60 nM,[2H]C([2H])([2H])NC(=O)c1nnc(NC(=O)C2CC2)cc1Nc1cccc(-c2ncc(C(=O)N3CCN(C(C)C)CC3)s2)c1OC [Example 295]
15,30 nM,[2H]C([2H])([2H])NC(=O)c1cnc(NC(=O)C2CC2)cc1Nc1cccc(-c2noc(COC(C)C)n2)c1OC [Example 89]
16,3600 nM,[2H]C([2H])([2H])NC(=O)c1nnc(Nc2cc(C)n(C)n2)cc1Nc1cc(F)cc(-c2cc(C(=O)NS(C)(=O)=O)n(C)n2)c1OC [Example 552]
17,160 nM,[2H]C([2H])([2H])NC(=O)c1nnc(NC(=O)C2CC2)cc1Nc1cccc(-c2nc(C)c(C(=O)N(C)CC)s2)c1OC [Example 370]
18,440 nM,[2H]C([2H])([2H])NC(=O)c1nnc(NC(=O)C2CC2)cc1Nc1cccc(-c2ncc(C(=O)NC3CCC(O)CC3)s2)c1OC (stereo not drawn) [Example 306]
19,90 nM,[2H]C([2H])([2H])NC(=O)c1nnc(NC(=O)C2CC2)cc1Nc1cccc(-c2ncc(C(=O)N3CC(C)(O)C3)s2)c1OC [Example 346]
20,100 nM,[2H]C([2H])([2H])NC(=O)c1nnc(NC(=O)C2CC2)cc1Nc1cccc(-c2nc(CN3CC4CN(C(C)=O)CC4C3)no2)c1OC (stereo not drawn) [Example 233]
21,> 10000 nM,[2H]C([2H])([2H])NC(=O)c1nnc(NC(=O)C2CC2)cc1Nc1cccc(-c2ncc(CNC(=O)OC(C)(C)C)s2)c1OC [Example 259]
22,470 nM,[2H]C([2H])([2H])NC(=O)c1nnc(NC(=O)C2CC2)cc1Nc1cccc(-c2ncc(NC(C)=O)s2)c1OC [Example 279]
23,200 nM,[2H]C([2H])([2H])NC(=O)c1nnc(NC(=O)C2CC2)cc1Nc1cccc(-c2cc(C(C)(C)O)n(C)n2)c1OC [Example 487]
24,640 nM,[2H]C([2H])([2H])NC(=O)c1nnc(NC(=O)C2CC2)cc1Nc1cccc(-c2ncc(CC(=O)N3CCS(=O)(=O)CC3)s2)c1OC [Example 250]
